Measured values published in US20250215012A1, “IKZF2 DEGRADERS AND USES THEREOF” (REGENTS OF THE UNIVERSITY OF MICHIGAN, priority 2022, published 2025).
Like-named read-outs stand apart in the source and are kept apart here.

Biological target: IKZF2 (Homo sapiens (Human), UniProt Q96SW2+Q9UKS7)
Experiment: IKZF2 HiBiT Assay (Jurkat-IKZF2-HiBiT cell line)
Format: cell-based
Settings: for DC50: read-out: HiBit assay degradation analysis DC50; for Dmax: read-out: HiBit assay degradation analysis Dmax
Method in brief: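 Jurkat cells carrying HiBiT-tagged IKZF2 were exposed to serially diluted compound for 24 h at 37 °C. Remaining IKZF2 was measured by Nano-Glo HiBiT lytic luminescence after 10-20 min at room temperature. Signal was normalized to DMSO, and IC50 came from a four-parameter variable-slope fit.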

[1] = Jurkat-IKZF2-HiBiT cells, 24 hours

Sequence of IKZF2 (Q9UKS7 whole entry): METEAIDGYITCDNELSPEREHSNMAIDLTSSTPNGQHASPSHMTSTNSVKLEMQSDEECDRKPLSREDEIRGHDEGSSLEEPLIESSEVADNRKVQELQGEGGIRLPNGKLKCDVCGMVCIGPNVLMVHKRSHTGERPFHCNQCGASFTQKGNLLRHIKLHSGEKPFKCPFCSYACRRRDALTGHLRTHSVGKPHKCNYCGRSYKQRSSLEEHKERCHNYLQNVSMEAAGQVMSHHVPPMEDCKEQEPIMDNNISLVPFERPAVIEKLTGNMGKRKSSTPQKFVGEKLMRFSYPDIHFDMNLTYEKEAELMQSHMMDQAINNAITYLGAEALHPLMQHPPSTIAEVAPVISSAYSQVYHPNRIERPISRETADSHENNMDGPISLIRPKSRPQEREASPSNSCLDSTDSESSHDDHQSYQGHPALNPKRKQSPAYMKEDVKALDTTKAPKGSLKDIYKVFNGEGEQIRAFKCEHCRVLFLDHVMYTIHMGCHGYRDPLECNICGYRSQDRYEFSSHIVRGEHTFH
Sequence of IKZF2 (Q96SW2 whole entry): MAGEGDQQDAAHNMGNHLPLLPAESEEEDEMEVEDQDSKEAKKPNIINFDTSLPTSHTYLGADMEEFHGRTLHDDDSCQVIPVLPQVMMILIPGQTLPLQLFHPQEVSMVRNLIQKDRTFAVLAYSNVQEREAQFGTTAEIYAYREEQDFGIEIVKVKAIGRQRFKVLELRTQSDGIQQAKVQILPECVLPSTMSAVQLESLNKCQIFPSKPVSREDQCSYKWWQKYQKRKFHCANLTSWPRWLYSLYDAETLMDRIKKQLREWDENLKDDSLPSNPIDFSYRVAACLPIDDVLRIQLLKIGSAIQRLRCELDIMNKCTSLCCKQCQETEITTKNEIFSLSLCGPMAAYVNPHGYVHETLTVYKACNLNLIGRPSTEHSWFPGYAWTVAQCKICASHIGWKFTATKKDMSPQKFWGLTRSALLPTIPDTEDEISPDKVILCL
Sequence of IKZF2 (Q16531 whole entry partner): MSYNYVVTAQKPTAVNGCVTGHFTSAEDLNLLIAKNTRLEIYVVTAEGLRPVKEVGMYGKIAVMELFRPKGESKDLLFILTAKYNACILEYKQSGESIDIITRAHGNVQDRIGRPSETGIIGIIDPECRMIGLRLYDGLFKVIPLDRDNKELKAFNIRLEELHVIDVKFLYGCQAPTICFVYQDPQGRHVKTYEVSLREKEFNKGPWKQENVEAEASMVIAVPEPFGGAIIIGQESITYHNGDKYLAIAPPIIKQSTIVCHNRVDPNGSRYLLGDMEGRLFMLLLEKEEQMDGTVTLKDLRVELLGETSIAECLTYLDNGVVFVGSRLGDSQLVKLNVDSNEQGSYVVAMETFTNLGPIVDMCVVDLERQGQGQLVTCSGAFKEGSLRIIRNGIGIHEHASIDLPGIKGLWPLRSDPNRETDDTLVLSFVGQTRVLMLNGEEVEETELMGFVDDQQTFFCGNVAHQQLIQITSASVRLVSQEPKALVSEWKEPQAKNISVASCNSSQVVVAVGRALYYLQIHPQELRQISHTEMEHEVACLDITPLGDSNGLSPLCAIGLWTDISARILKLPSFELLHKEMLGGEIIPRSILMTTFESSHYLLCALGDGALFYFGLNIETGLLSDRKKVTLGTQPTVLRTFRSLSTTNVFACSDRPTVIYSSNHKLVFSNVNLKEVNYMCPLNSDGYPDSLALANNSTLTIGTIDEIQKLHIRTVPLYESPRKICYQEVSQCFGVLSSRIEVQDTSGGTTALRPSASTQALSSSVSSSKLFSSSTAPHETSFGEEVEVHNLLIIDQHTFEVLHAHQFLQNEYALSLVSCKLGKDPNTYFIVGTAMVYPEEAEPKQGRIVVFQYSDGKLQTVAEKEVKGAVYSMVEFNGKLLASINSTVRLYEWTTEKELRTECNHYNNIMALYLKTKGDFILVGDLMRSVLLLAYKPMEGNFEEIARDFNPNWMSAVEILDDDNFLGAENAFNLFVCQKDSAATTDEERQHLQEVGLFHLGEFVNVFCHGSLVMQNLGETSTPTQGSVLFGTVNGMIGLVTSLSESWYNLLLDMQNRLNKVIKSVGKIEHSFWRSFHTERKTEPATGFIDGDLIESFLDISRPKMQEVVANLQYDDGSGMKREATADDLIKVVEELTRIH

| Structure (SMILES) | DC50 [1] | Dmax [1] | Dmax |
| --- | --- | --- | --- |
| O=C1CC[C@H](N2Cc3c(ccc4c3OCC43CCN(Cc4ccc5c(c4)C(=O)NC5)CC3)C2=O)C(=O)N1 [Compound A171, (S)-3-(6-oxo-1′-((3-oxoisoindolin-5-yl)methyl)-6,8-dihydro-2H,7H-spiro[furo[2,3-e]isoindole-3,4′-piperidin]-7-yl)piperidine-2,6-dione] | 50 to 200 nM | 60 to 80% |  |
| O=C1CC[C@H](N2Cc3c(ccc4c3OCC43CCN(Cc4ccc5cc[nH]c5c4)CC3)C2=O)C(=O)N1 [Compound A172, (S)-3-(1′-((1H-indol-6-yl)methyl)-6-oxo-6,8-dihydro-2H,7H-spiro[furo[2,3-e]isoindole-3,4′-piperidin]-7-yl)piperidine-2,6-dione] | < 50 nM | 60 to 80% |  |
| O=C1CC[C@H](N2Cc3c(ccc4c3OCC43CCN(Cc4ccc5c(c4)NC(=O)C5)CC3)C2=O)C(=O)N1 [Compound A173, (S)-3-(6-oxo-1′-((2-oxoindolin-6-yl)methyl)-6,8-dihydro-2H,7H-spiro[furo[2,3-e]isoindole-3,4′-piperidin]-7-yl)piperidine-2,6-dione] | 50 to 200 nM | 60 to 80% |  |
| O=C1CCC(N2Cc3c(ccc4c3OCC43CCN(Cc4cccc(-c5cnn(C6CC6)c5)c4)CC3)C2=O)C(=O)N1 (centres unmarked) [Compound A174, 3-(1′-(3-(1-cyclopropyl-1H-pyrazol-4-yl)benzyl)-6-oxo-6,8-dihydro-2H,7H-spiro[furo[2,3-e]isoindole-3,4′-piperidin]-7-yl)piperidine-2,6-dione] | < 50 nM | 60 to 80% |  |
| Cn1c(=O)oc2ccc(CN3CCC4(CC3)COc3c4ccc4c3CN(C3CCC(=O)NC3=O)C4=O)cc21 (centres unmarked) [Compound A175, 3-(1′-((3-methyl-2-oxo-2,3-dihydrobenzo[d]oxazol-5-yl)methyl)-6-oxo-6,8-dihydro-2H,7H-spiro[furo[2,3-e]isoindole-3,4′-piperidin]-7-yl)piperidine-2,6-dione] | > 500 nM | < 40% |  |
| CC(=O)Nc1cccc(CN2CCC3(CC2)COc2c3ccc3c2CN(C2CCC(=O)NC2=O)C3=O)c1 (centres unmarked) [Compound A176, N-(3-((7-(2,6-dioxopiperidin-3-yl)-6-oxo-7,8-dihydro-2H,6H-spiro[furo[2,3-e]isoindole-3,4′-piperidin]-1′-yl)methyl)phenyl) acetamide] | > 500 nM | 40 to 60% |  |
| COc1ccc(C(=O)Nc2cccc(CN3CCC4(CC3)COc3c4ccc4c3CN(C3CCC(=O)NC3=O)C4=O)c2)cc1 (centres unmarked) [Compound A177, N-(3-((7-(2,6-dioxopiperidin-3-yl)-6-oxo-7,8-dihydro-2H,6H-spiro[furo[2,3-e]isoindole-3,4′-piperidin]-1′-yl)methyl)phenyl)-4-methoxybenzamide] | < 50 nM | > 80% |  |
| O=C1CCC(N2Cc3c(ccc4c3OCC43CCN(Cc4cccc(NC(=O)c5ccc(Cl)cc5)c4)CC3)C2=O)C(=O)N1 (centres unmarked) [Compound A178, 4-chloro-N-(3-((7-(2,6-dioxopiperidin-3-yl)-6-oxo-7,8-dihydro-2H,6H-spiro[furo[2,3-e]isoindole-3,4′-piperidin]-1′-yl)methyl)phenyl)benzamide] | < 50 nM | > 80% |  |
| Cc1ccc(C(=O)Nc2cccc(CN3CCC4(CC3)COc3c4ccc4c3CN(C3CCC(=O)NC3=O)C4=O)c2)cc1 (centres unmarked) [Compound A179, N-(3-((7-(2,6-dioxopiperidin-3-yl)-6-oxo-7,8-dihydro-2H,6H-spiro[furo[2,3-e]isoindole-3,4′-piperidin]-1′-yl)methyl)phenyl)-4-methylbenzamide] | < 50 nM |  | > 80% |
| O=C1CCC(N2Cc3c(ccc4c3OCC43CCN(CC4CCCC(c5ccccc5)C4)CC3)C2=O)C(=O)N1 (centres unmarked) [Compound A181, 3-(6-oxo-1′-((3-phenylcyclohexyl)methyl)-6,8-dihydro-2H,7H-spiro[furo[2,3-e]isoindole-3,4′-piperidin]-7-yl)piperidine-2,6-dione] | 200 to 500 nM | 40 to 60% |  |
| O=C1CCC(N2Cc3c(ccc4c3OCC43CCN(Cc4cccs4)CC3)C2=O)C(=O)N1 (centres unmarked) [Compound A182, 3-(6-oxo-1′-(thiophen-2-ylmethyl)-6,8-dihydro-2H,7H-spiro[furo[2,3-e]isoindole-3,4′-piperidin]-7-yl)piperidine-2,6-dione] | > 500 nM | 40 to 60% |  |
| O=C1CCC(N2Cc3c(ccc4c3OCC43CCN(Cc4ccsc4)CC3)C2=O)C(=O)N1 (centres unmarked) [Compound A183, 3-(6-oxo-1′-(thiophen-3-ylmethyl)-6,8-dihydro-2H,7H-spiro[furo[2,3-e]isoindole-3,4′-piperidin]-7-yl)piperidine-2,6-dione] | 200 to 500 nM | 40 to 60% |  |
| O=C1CCC(N2Cc3c(ccc4c3OCC43CCN(Cc4cc5ccccc5s4)CC3)C2=O)C(=O)N1 (centres unmarked) [Compound A184, 3-(1′-(benzo[b]thiophen-2-ylmethyl)-6-oxo-6,8-dihydro-2H,7H-spiro[furo[2,3-e]isoindole-3,4′-piperidin]-7-yl)piperidine-2,6-dione] | > 500 nM | < 40% |  |
| O=C1CCC(N2Cc3c(ccc4c3OCC43CCN(Cc4csc5ccccc45)CC3)C2=O)C(=O)N1 (centres unmarked) [Compound A185, 3-(1′-(benzo[b]thiophen-3-ylmethyl)-6-oxo-6,8-dihydro-2H,7H-spiro[furo[2,3-e]isoindole-3,4′-piperidin]-7-yl)piperidine-2,6-dione] | < 50 nM | 60 to 80% |  |
| O=C1CCC(N2Cc3c(ccc4c3OCC43CCN(Cc4cccc5sccc45)CC3)C2=O)C(=O)N1 (centres unmarked) [Compound A186, 3-(1′-(benzo[b]thiophen-4-ylmethyl)-6-oxo-6,8-dihydro-2H,7H-spiro[furo[2,3-e]isoindole-3,4′-piperidin]-7-yl)piperidine-2,6-dione] | < 50 nM | > 80% |  |
| O=C1CCC(N2Cc3c(ccc4c3OCC43CCN(Cc4cccc5ccsc45)CC3)C2=O)C(=O)N1 (centres unmarked) [Compound A189, 3-(1′-(benzo[b]thiophen-7-ylmethyl)-6-oxo-6,8-dihydro-2H,7H-spiro[furo[2,3-e]isoindole-3,4′-piperidin]-7-yl)piperidine-2,6-dione] | 50 to 200 nM | 60 to 80% |  |
| Cn1cc(-c2ccc(CN3CCC4(CC3)COc3c4ccc4c3CN(C3CCC(=O)NC3=O)C4=O)s2)cn1 (centres unmarked) [Compound A190, 3-(1′-((5-(1-methyl-1H-pyrazol-4-yl)thiophen-2-yl)methyl)-6-oxo-6,8-dihydro-2H,7H-spiro[furo[2,3-e]isoindole-3,4′-piperidin]-7-yl)piperidine-2,6-dione] | > 500 nM | 40 to 60% |  |
| CC(C)c1ccc(CN2CCC3(CC2)COc2c3ccc3c2CN(C2CCC(=O)NC2=O)C3=O)cc1 (centres unmarked) [Compound A191, 3-(1′-(4-isopropylbenzyl)-6-oxo-6,8-dihydro-2H,7H-spiro[furo[2,3-e]isoindole-3,4′-piperidin]-7-yl)piperidine-2,6-dione] | > 500 nM | < 40% |  |
| O=C1CCC(N2Cc3c(ccc4c3OCC43CCN(Cc4ccc(F)cc4)CC3)C2=O)C(=O)N1 (centres unmarked) [Compound A192, 3-(1′-(4-fluorobenzyl)-6-oxo-6,8-dihydro-2H,7H-spiro[furo[2,3-e]isoindole-3,4′-piperidin]-7-yl)piperidine-2,6-dione] | > 500 nM | 40 to 60% |  |
